# Where two headings read alike, the source gives them in different places.
# Tested on: Trichomonas vaginalis
# Assay: In vitro activity against T. vaginalis (IC50 determination)
# Format: cell-based
# Settings: 37° C., aerobic, Modified Diamonds Medium
# Experimental: The antiprotozoal e.g. antitrichomonal, activity of the compounds of the present invention may be assessed by conventional methods, for example by determining the minimum inhibition concentration (m.i.c.) or 50% inhibition level (IC50).
# Modified Diamonds Medium (MDM) was prepared according to the method described in J. Kulda et al., American Journal of Obstetrics and Gynaecology 1970, 108, 908-18 and 4 cm^3 of the medium was pipetted into each of a series of tubes (usually 16 tubes). To each tube was added 0.5 cm^3 of varying concentration of a solution (usually in ethanol+MDM) or suspension of the test drug. Duplicate tubes for each drug concentration were prepared.
# Finally, to each tube was added T. vaginalis (0.5 cm^3) at a concentration of 1×10^5 cm^-3,) to give a final trichomonad concentration of 1×10^4 cm^-3 in each tube. The tubes were then incubated (aerobically) at 37° C. and the resulting trichomonad numbers were counted at 24 and 48 hours using a haemacytometer.
# This information was then used to determine the 50% inhibition concentration (IC50).
# [1] = 24 hr, 1×10^4 trichomonads cm^-3, read-out: IC50 24 hr
# [2] = 48 hr, 1×10^4 trichomonads cm^-3, read-out: IC50 48 hr
IC50 [1],IC50 [2],SMILES
1.2 µg/mL,2 µg/mL,"CCCCOc1ccc2c(c1)CCN=C2C=Cc1ccccc1Cl [Example 12, 6-Butyloxy-1-(2-chlorostyryl)-3,4-dihydroisoquinoline]"
5.5 µg/mL,8 µg/mL,"CCCCOc1ccc2c(c1)CCN=C2C=Cc1ccc(OC)cc1OC [Example 14, 6-Butyloxy-3,4-dihydro-1-(2,4-dimethoxystyryl)isoquinoline]"
1.5 µg/mL,2.8 µg/mL,"CCCCOc1ccc2c(c1)CCN=C2C=Cc1ccc(C(C)(C)C)cc1 [Example 15, 6-Butyloxy-1-(4-t-butylstyryl)-3,4-dihydroisoquinoline]"
10 µg/mL,13.5 µg/mL,"CCCCOc1ccc2c(c1)CCN=C2C=Cc1ccc([N+](=O)[O-])cc1 [Example 19, 6-Butyloxy-3,4-dihydro-1-(4-nitrostyryl)isoquinoline]"
1.2 µg/mL,128 µg/mL,"CCCCOc1ccc2c(c1)CCN=C2C=Cc1ccc(-c2ccccc2)cc1 [Example 24, 6-Butyloxy-3,4-dihydro-1-(4-phenylstyryl)isoquinoline]"
0.7 µg/mL,1 µg/mL,"CC(C)(C)CCOc1ccc2c(c1)CCN=C2C=Cc1ccc(Cl)cc1Cl [Example 33, 1-(2,4-Dichlorostyryl)-3,4-dihydro-6-(3,3-dimethylbutyloxy)isoquinoline]"
1.1 µg/mL,1.3 µg/mL,"C=CCCOc1ccc2c(c1)CCN=C2C=Cc1ccc(Cl)cc1Cl [Example 46, 6-(But-3-enyloxy)-1-(2,4-dichlorostyryl)-3,4-dihydroisoquinoline]"
1.1 µg/mL,1.7 µg/mL,"CC(C)COc1ccc2c(c1)CCN=C2C=Cc1ccccc1Cl [Example 47, 1-(2-Chlorostyryl)-3,4-dihydro-6-(2-methylpropyloxy)-isoquinoline]"
3.2 µg/mL,5.5 µg/mL,"C(=Cc1ccccc1)C1=NCCc2cc(OCc3ccccc3)ccc21 [Example 53, 6-Benzyloxy-3,4-dihydro-1-styrylisoquinoline]"
8 µg/mL,8 µg/mL,"COc1ccc(C=CC2=NCCc3cc(OCc4ccccc4)ccc32)c(OC)c1 [Example 56, 6-Benzyloxy-3,4-dihydro-1-(2,4-dimethoxystyryl)isoquinoline]"
5.6 µg/mL,10.5 µg/mL,"CC(C)(C)c1ccc(C=CC2=NCCc3cc(OCc4ccccc4)ccc32)cc1 [Example 60, 6-Benzyloxy-1-(4-t-butylstyryl)-3,4-dihydroisoquinoline]"
1.2 µg/mL,1.6 µg/mL,"Clc1ccc(C=CC2=NCCc3cc(Oc4ccccc4)ccc32)cc1 [Example 65, 1-(4-Chlorostyryl)-3,4-dihydro-6-phenoxy-isoquinoline]"
5 µg/mL,5.3 µg/mL,"O=[N+]([O-])c1ccc(C=CC2=NCCc3cc(Oc4ccc(Cl)cc4)ccc32)cc1 [Example 68, 6-(4-Chlorophenoxy)-3,4-dihydro-1-(4-nitrostyryl)-isoquinoline]"
0.8 µg/mL,1.4 µg/mL,"CC(C)(C)c1ccc(Oc2ccc3c(c2)CCN=C3C=Cc2ccc(Cl)cc2Cl)cc1 [Example 71, 6-(4-t-Butylphenoxy)-1-(2,4-dichlorostyryl)-3,4-dihydroisoquinoline]"
0.4 µg/mL,1.1 µg/mL,"CC(C)(C)c1ccc(Oc2ccc3c(c2)CCN=C3C=Cc2ccccc2)cc1 [Example 73, 6-(4-t-Butylphenoxy)-3,4-dihydro-1-styrylisoquinoline]"
3.3 µg/mL,0.9 µg/mL,"CCCCCCOc1ccc2c(c1)CCN=C2C=Cc1ccccc1 [Example 74, 6-Hexyloxy-3,4-dihydro-1-styrylisoquinoline]"
0.3 µg/mL,0.8 µg/mL,"CCCCCCOc1ccc2c(c1)CCN=C2C=Cc1ccc(C#N)cc1 [Example 75, 1-(4-Cyanostyryl)-6-hexyloxy-3,4-dihydroisoquinoline]"

IC50 [1],IC50 [2],SMILES
2.5 µg/mL,2.4 µg/mL,"CC(C)(C)c1ccc(COc2ccc3c(c2)CCN=C3C=Cc2ccccc2)cc1 [Example 80, 6-(4-t-Butylbenzyloxy)-3,4-dihydro-1-styrylisoquinoline]"
1.1 µg/mL,1.6 µg/mL,"CC(C)(C)c1ccc(COc2ccc3c(c2)CCN=C3C=Cc2ccc(Cl)cc2Cl)cc1 [Example 81, 6-(4-t-Butylbenzyloxy)-1-(2,4-dichlorostyryl)-3,4-dihydroisoquinoline]"
0.6 µg/mL,2 µg/mL,C(=Cc1ccc(-c2ccccc2)cc1)C1=NCCc2cc(OCc3ccccc3)ccc21 [Example 82]
1.1 µg/mL,1.5 µg/mL,"Clc1ccc(COc2ccc3c(c2)CCN=C3C=Cc2ccc(Cl)cc2Cl)cc1 [Example 85, 6-(4-Chlorobenzyloxy)-1-(2,4-dichlorostyryl)-3,4-dihydroisoquinoline]"
0.5 µg/mL,1 µg/mL,"Clc1ccc(C=CC2=NCCc3cc(OCc4ccc(Cl)cc4Cl)ccc32)c(Cl)c1 [Example 92, 6-(2,4-Dichlorobenzyloxy)-1-(2,4-dichlorostyryl)-3,4-dihydroisoquinoline]"
7.4 µg/mL,7.3 µg/mL,"C(=C\c1cccs1)/C1=NCCc2cc(OCc3ccccc3)ccc21 [Example 104, (E)-6-Benzyloxy-3,4-dihydro-1-[2-(2-thienyl)vinyl]isoquinoline]"
2 µg/mL,6.7 µg/mL,"CCCCOc1ccc2c(c1)CCN=C2/C=C/c1cccs1 [Example 105, (E)-6-Butyloxy-3,4-dihydro-1-[2-(2-thienyl)vinyl]isoquinoline]"
1.4 µg/mL,3.7 µg/mL,"C(=C\c1ccsc1)/C1=NCCc2cc(OCc3ccccc3)ccc21 [Example 106, (E)-6-Benzyloxy-3,4-dihydro-1-(3-thienyl)vinyl isoquinoline]"
2.7 µg/mL,6.1 µg/mL,"Brc1csc(/C=C/C2=NCCc3cc(OCc4ccccc4)ccc32)c1 [Example 108, (E)-6-Benzyloxy-3,4-dihydro-1-[2-(4-bromo-2-thienyl)vinyl]isoquinoline]"
0.7 µg/mL,1.2 µg/mL,"CCCOc1ccc2c(c1)CCN=C2/C=C/c1ccc([N+](=O)[O-])o1 [Example 113, (E)-3,4-Dihydro-6-propyloxy-1-[2-(5-nitro-2-furyl)]vinyl isoquinoline]"
0.4 µg/mL,1 µg/mL,"O=[N+]([O-])c1ccc(/C=C/C2=NCCc3cc(OCc4ccccc4)ccc32)o1 [Example 115, (E)-6-Benzyloxy-3,4-dihydro-1-[2-(5-nitro-2-furyl)]vinyl isoquinoline]"
1.5 µg/mL,1.7 µg/mL,"C(/C=C/c1ccccc1)=C\C1=NCCc2cc(OCc3ccccc3)ccc21 [Example 126, (E,E)-6-Benzyloxy-3,4-dihydro-1-(4-phenylbuta-1,3-dienyl)isoquinoline]"
2.9 µg/mL,3.1 µg/mL,"C/C=C/C=C/C1=NCCc2cc(OCCCCCC)ccc21 [Example 129, (E,E)-6-Hexyloxy-3,4-dihydro-1-(penta-1,3-dienyl)isoquinoline]"
3.6 µg/mL,5.4 µg/mL,"C/C=C/C=C/C1=NCCc2cc(OCc3ccccc3)ccc21 [Example 130, (E,E)-6-Benzyloxy-3,4-dihydro-1-(penta-1,3-dienyl)isoquinoline]"
1.3 µg/mL,1.6 µg/mL,"CCCCOc1ccc2c(c1)CCN=C2/C=C/c1cccc2ccccc12 [Example 135, (E)-6-Butyloxy-3,4-dihydro-1-[2-(1-naphthyl)vinyl]isoquinoline]"
1 µg/mL,1.7 µg/mL,"CC=CC1=NCCc2cc(OCCC)ccc21 [Example 137, 3,4-Dihydro-1-prop-1-enyl-6-propyloxyisoquinoline]"

# From patent US4968698A, “Nitrogen containing heterocyclic compounds” (Burroughs Wellcome Co., priority 1984, dated 1990)
